Experimental data from ChEMBL document CHEMBL4387741, “Optimization of novel reversible Bruton's tyrosine kinase inhibitors identified using Tethering-fragment-based screens” (Bioorg Med Chem, 2019).

Columns and labels:
[1] = target: Activin receptor type-1-like (Homo sapiens) (UniProt P37023); assay: Inhibition of wild-type human ACVRL1 (L164 to Q503 residues) expressed in bacterial expression system at 1 uM by Kinomescan method relative to control
[2] = target: Mitogen-activated protein kinase kinase kinase 5 (Homo sapiens) (UniProt Q99683); assay: Inhibition of wild-type human partial length ASK1 (E648 to S964 residues) expressed in bacterial expression system at 1 uM by Kinomescan method relative to control
[3] = target: Cyclin-dependent kinase 7 (Homo sapiens) (UniProt P50613); assay: Inhibition of wild-type human full length CDK7 (M1 to L344 residues) expressed in mammalian expression system at 1 uM by Kinomescan method relative to control
[4] = target: Casein kinase II subunit alpha' (Homo sapiens) (UniProt P19784); assay: Inhibition of wild-type human full length CSNK2A2 (M1 to R350 residues) expressed in mammalian expression system at 1 uM by Kinomescan method relative to control
[5] = tested on: Receptor-type tyrosine-protein kinase FLT3 (Homo sapiens), P36888 [UNDEFINED MUTATION]; assay: Inhibition of human partial length FLT3 ITD/F691L double mutant expressed in bacterial expression system at 1 uM by Kinomescan method relative to control
[6] = tested on: eIF-2-alpha kinase GCN2 (Homo sapiens), Q9P2K8 [S808G]; assay: Inhibition of wild-type human partial length GCN2 kinase domain 2 (R585 to T1018 residues) S808G mutant expressed in bacterial expression system at 1 uM by Kinomescan method relative to control
[7] = target: Macrophage-stimulating protein receptor (Homo sapiens) (UniProt Q04912); assay: Inhibition of wild-type human partial length MST1R (I1057 to L1363 residues) expressed in bacterial expression system at 1 uM by Kinomescan method relative to control
[8] = target: Muscle, skeletal receptor tyrosine-protein kinase (Homo sapiens) (UniProt O15146); assay: Inhibition of wild-type human partial length MUSK (M553 to V869 residues) expressed in bacterial expression system at 1 uM by Kinomescan method relative to control
[9] = target: Serine/threonine-protein kinase Nek10 (Homo sapiens) (UniProt Q6ZWH5); assay: Inhibition of wild-type human partial length NEK10 (L488 to R809 residues) expressed in mammalian expression system at 1 uM by Kinomescan method relative to control
[10] = target: Serine/threonine-protein kinase Nek3 (Homo sapiens) (UniProt P51956); assay: Inhibition of wild-type human full length NEK3 (M1 to R506 residues) expressed in mammalian expression system at 1 uM by Kinomescan method relative to control
[11] = target: Phosphatidylinositol 4-phosphate 5-kinase type-1 alpha (Homo sapiens) (UniProt Q99755); assay: Inhibition of wild-type human full length PIP5K1A (M1 to H562 residues) expressed in bacterial expression system at 1 uM by Kinomescan method relative to control
[12] = target: cAMP-dependent protein kinase catalytic subunit beta (Homo sapiens) (UniProt P22694); assay: Inhibition of wild-type human full length PKAC-beta (M1 to F351 residues) expressed in bacterial expression system at 1 uM by Kinomescan method relative to control
[13] = target: Serine/threonine-protein kinase Sgk1 (Homo sapiens) (UniProt O00141); assay: Inhibition of wild-type human partial length SGK (I60 to L431 residues) expressed in mammalian expression system at 1 uM by Kinomescan method relative to control
[14] = target: Serine/threonine-protein kinase SIK1 (Homo sapiens) (UniProt P57059); assay: Inhibition of wild-type human partial length SIK (M1 to Y304 residues) expressed in bacterial expression system at 1 uM by Kinomescan method relative to control
[15] = target: Transient receptor potential cation channel subfamily M member 6 (Homo sapiens) (UniProt Q9BX84); assay: Inhibition of wild-type human partial length TRPM6 (Q1723 to I1998 residues) expressed in mammalian expression system at 1 uM by Kinomescan method relative to control
[16] = target: BMP-2-inducible protein kinase (Homo sapiens) (UniProt Q9NSY1); assay: Inhibition of wild-type human partial length BIKE (S34 to N329 residues) expressed in bacterial expression system at 10 uM by Kinomescan method relative to control
[17] = target: Cyclin-dependent kinase 3 (Homo sapiens) (UniProt Q00526); assay: Inhibition of wild-type human full length CDK3 (M1 to H305 residues) expressed in bacterial expression system at 10 uM by Kinomescan method relative to control
[18] = target: Cyclin-dependent kinase 8 (Homo sapiens) (UniProt P49336); assay: Inhibition of wild-type human partial length CDK8 (M1 to T360 residues) expressed in bacterial expression system at 10 uM by Kinomescan method relative to control
[19] = target: Myotonin-protein kinase (Homo sapiens) (UniProt Q09013); assay: Inhibition of wild-type human partial length DMPK (V47 to V415 residues) expressed in bacterial expression system at 10 uM by Kinomescan method relative to control
[20] = target: Ephrin type-A receptor 7 (Homo sapiens) (UniProt Q15375); assay: Inhibition of wild-type human partial length EPHA7 (Y608 to S912 residues) expressed in bacterial expression system at 10 uM by Kinomescan method relative to control
[21] = target: Tyrosine-protein kinase Fer (Homo sapiens) (UniProt P16591); assay: Inhibition of wild-type human partial length FER (S542 to T822 residues) expressed in bacterial expression system at 10 uM by Kinomescan method relative to control
[22] = tested on: Receptor-type tyrosine-protein kinase FLT3 (Homo sapiens), P36888 [D835H]; assay: Inhibition of human partial length FLT3 D835H mutant (V592 to Y969 residues) expressed in bacterial expression system at 10 uM by Kinomescan method relative to control
[23] = target: Serine/threonine-protein kinase LATS1 (Homo sapiens) (UniProt O95835); assay: Inhibition of wild-type human partial length LATS1 (Q678 to V1130 residues) expressed in bacterial expression system at 10 uM by Kinomescan method relative to control
[24] = target: Mitogen-activated protein kinase kinase kinase 1 (Homo sapiens) (UniProt Q13233); assay: Inhibition of wild-type human partial length MAP3K1 (L1202 to W1512 residues) expressed in mammalian expression system at 10 uM by Kinomescan method relative to control
[25] = target: Serine/threonine-protein kinase N2 (Homo sapiens) (UniProt Q16513); assay: Inhibition of wild-type human partial length PKN2 (E634 to C984 residues) expressed in bacterial expression system at 10 uM by Kinomescan method relative to control
[26] = target: Dual serine/threonine and tyrosine protein kinase (Homo sapiens) (UniProt Q6XUX3); assay: Inhibition of wild-type human full length RIPK5 (M1 to T929 residues) expressed in mammalian expression system at 10 uM by Kinomescan method relative to control
[27] = target: Ribosomal protein S6 kinase alpha-3 (Homo sapiens) (UniProt P51812); assay: Inhibition of wild-type human partial length N-terminal RSK2 kinase domain 1 (M1 to D394 residues) expressed in mammalian expression system at 10 uM by Kinomescan method relative to control

With `O=C(Nc1cccc([C@@H]2CN(c3ncnc4[nH]ccc34)CCN2CCO)c1)Nc1c(F)cccc1N1CCCC1` the inhibition [1] was 100%, the inhibition [2] was 97% and the inhibition [3] was 100%. The inhibition [4] was 81%, the inhibition [5] was 4.6% and the inhibition [6] was 95%. The inhibition [7] was 100%, the inhibition [8] was 100% and the inhibition [9] was 26%. For the same molecule, the inhibition [10] was 65%, the inhibition [11] was 76% and the inhibition [12] was 99%. For the same molecule, the inhibition [13] was 64%, the inhibition [14] was 55% and the inhibition [15] was 65%.

Molecule `O=C(Nc1cccc([C@H]2CCCN(c3ncnc4[nH]ccc34)C2)c1)Nc1ccccc1N1CCCC1` has an inhibition [16] of 0%, an inhibition [17] of 86% and an inhibition [18] of 53%. The inhibition [19] was 100%, the inhibition [20] was 72% and the inhibition [21] was 80%. It also gave an inhibition [22] of 1.3%, an inhibition [23] of 14% and an inhibition [24] of 39%. The inhibition [25] was 32%, the inhibition [26] was 49% and the inhibition [27] was 57%.
